Experimental data as given in PubChem BioAssay AID1963837 (Molecular Pharmacology Branch, DTP, NCI, 2024).
Several values for one entry are separate records, joined by “and”; a condition that tells them apart may be missing. Identical values can stand only once.

Test system: 843126-344-R-J1-PDC complex spheroid viability
Assay: Anticancer human tumor 843126-344-R-J1-PDC patient-derived melanoma cell line growth inhibition [POLQ]
Conditions: for viability, T/C: stronger effect = lower value
Description: Multicellular complex tumor spheroid response to Polymerase (POL) inhibitors (novobiocin, ART-558, RP6685) in combination with a variety of drugs and investigational agents in selected tumor cell lines
The POL inhibitors (novobiocin, ART-558, and RP6685) were evaluated both individually and in combination with standard of care and investigational anticancer small molecules within a complex spheroid model of solid tumors. . Complex spheroids include a stromal component modeled by human endothelial cells (HUVEC) and fibroblasts modeled by human mesenchymal stem cells (MSCs). The concentration ranges selected for each drug and investigational agent were based upon clinically achievable concentrations if the clinical Cmax of the agent was known.
Compounds. The drugs and investigational agents: novobiocin (NSC847541), ART-558 (NSC835418), RP-6685 (NSC848927), peposertib (NSC802822), ceralasertib (NSC780249), elimusertib (NSC800525), camonsertib (NSC841442), AZD-1390 (NSC803789), olaparib (NSC753686), talazoparib (NSC767125), rucaparib (NSC756644), sotorasib (NSC818433), MRTX-1133 (NSC836407), SN-38 (NSC673596), topotecan (NSC609699), epotoside (NSC141540), doxorubicin (NSC123127), gemcitabine (NSC613327), 5-fluorouracil (NSC19893), paclitaxel (NSC125973), vemurafenib (NSC761431), MSA-2 (NSC828583), SN-011 (NSC837082), adavosertib (NSC754352), prexasertib (NSC758257), carboplatin (NSC241240) and oxaliplatin (NSC266046), were obtained from the National Cancer Institute (NCI) Developmental Therapeutics Program Chemical Repository (21). The FDA-approved anticancer drug set is available from the Developmental Therapeutics Program at https://dtp.cancer.gov/organization/dscb/obtaining/. […] The stock solutions were prepared in dimethyl sulfoxide (DMSO, Sigma-Aldrich, St. Louis, MO, cat. D2650), except for the platinum compounds which were prepared in saline (Quality Biological, Gaithersburg, MD, cat. 114-055-101), at 800-fold the tested concentration and stored at -70 degrees C prior to their use. All drugs and investigational agents were tested over a range starting from a high concentration at or near the clinical Cmax and decreasing in half-log increments. If the clinical Cmax for an agent had not been determined, the highest concentration tested was 10 microM, except for SN-38, which was tested at a high concentration of 1 microM.
Cell Culture. All cells were maintained in an incubator at 37 degrees C and 5% CO2 with 95% humidity. The PDC lines were cultured according to standard operating procedures established by the NCI PDMR (https://pdmr.cancer.gov). Table 3 of the manuscript, lists the cell lines along with the number of the three cell types plated to form the mct-spheroids and media for tumor cell growth. After thawing, all PDC lines, except 997537-175-T-J1-PDC and 415267-285-R-J2-PDC, were cultured in Matrigel-coated flasks prepared with a working solution of 1X Ham's F-12 nutrient mix, without supplementation (Thermo Fisher Scientific, cat. 11765054), 100 U/mL penicillin-streptomycin (Thermo Fisher Scientific, cat. 15140122), and 2.5% Matrigel (Corning Inc., Corning, NY, cat. 354248) for the first three passages. The two PDC lines 997537-175-T-J1-PDC and 415267-285-R-J2-PDC were cultured on uncoated flasks. The 857933-349-R-J2-PDC line was cultured in 6C/Colon 1B media containing advanced DMEM/F-12 (Thermo Fisher Scientific, cat. 12634028), 10 mM HEPES (Thermo Fisher Scientific, cat. 15630080), 1X GlutaMAX supplement (Thermo Fisher Scientific, cat. 35050061), 0.1 mg/mL primocin (InvivoGen, San Diego, CA, cat. ant-pm-2), 10% defined fetal bovine serum, heat inactivated (HyClone Laboratories Inc., Logan, UT, cat. SH30070.03HI), 50% L-WRN conditioned media (ATCC, cat. CRL-3276), 1.25 mM N-Acetyl-L-cysteine (Sigma-Aldrich, cat. A9165), 10 mM nicotinamide (Sigma-Aldrich, cat. N0636), 1X B-27 supplement (Thermo Fisher Scientific, cat. 17504044), 1X N-2 supplement (Thermo Fisher Scientific, cat. […]
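Throughout, for viability, T/C: spheroids exposed to drugs for seven days before readout.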

How did the viability, T/C (compound 0.0316 µM) turn out when `O=C(Nc1ccc(O)c(NS(=O)(=O)c2ccc(F)cc2)c1)c1ccc(-c2ccccc2)cc1` was run?
The viability, T/C was 105% and 76% and 99.6%.

And the viability, T/C (compound 0.1 µM)?
The viability, T/C was 95.6% and 92.3% and 104%.

And the viability, T/C (compound 0.316 µM)?
The viability, T/C was 105% and 88.3% and 87.2%.

And the viability, T/C (compound 1 µM)?
The viability, T/C was 99.5% and 85.9% and 100%.

What about the viability, T/C (compound 3.16 µM) of the same molecule?
Its viability, T/C is 87.3% and 85.3% and 95.2%.

What about the viability, T/C (compound 10 µM) of the same molecule?
Its viability, T/C is 74.3% (2×) and 75.3%.

What about the IC50 (curve of compound) of the same molecule?
The IC50 was greater than 10000 nM.

Which viability, T/C (compound 0.0316 µM) does the source give for `CCCS(=O)(=O)Nc1ccc(F)c(C(=O)c2c[nH]c3ncc(-c4ccc(Cl)cc4)cc23)c1F` here?
The viability, T/C was 101% and 86.2%.

And the viability, T/C (compound 0.1 µM)?
The viability, T/C was 91.1% and 76%.

And the viability, T/C (compound 0.316 µM)?
The viability, T/C was 87.4% and 96%.

And the viability, T/C (compound 1 µM)?
The viability, T/C was 85.6% and 76.9%.

What about the viability, T/C (compound 3.16 µM) of the same molecule?
Its viability, T/C is 72.9% and 74.4%.

And the viability, T/C (compound 10 µM)?
Its viability, T/C is 91.5% and 59.1%.

And the IC50 (curve of compound)?
Its IC50 is greater than 10000 nM.

For `COc1cccc(OCCCN)c1-c1cc(Nc2cnc(C#N)cn2)n[nH]1`, which viability, T/C (compound 0.00316 µM) is on record?
Its viability, T/C is 97.4% and 92.9% and 79.1%.

What about the viability, T/C (compound 0.01 µM) of the same molecule?
The viability, T/C was 79.3% and 86.4% and 75.8%.

What about the viability, T/C (compound 0.0316 µM) of the same molecule?
Its viability, T/C is 59% and 60.4% and 62.1%.

And the viability, T/C (compound 0.1 µM)?
Its viability, T/C is 49.5% and 47.9% and 49.9%.

What about the viability, T/C (compound 0.316 µM) of the same molecule?
The viability, T/C was 47.6% and 47.8% and 44.3%.

And the viability, T/C (compound 1 µM)?
Its viability, T/C is 35.3% and 32.9% and 35.2%.

What about the IC50 (curve of compound) of the same molecule?
Its IC50 is 109 nM and 86.4 nM and 114 nM.

What does the source list for `CC[C@@]1(O)C(=O)OCc2c1cc1n(c2=O)Cc2cc3c(CN(C)C)c(O)ccc3nc2-1`?
viability, T/C (compound 0.000316 µM): 84.4% and 108% and 96.4%; viability, T/C (compound 0.001 µM): 99.5% and 88.4% and 89.3%; viability, T/C (compound 0.00316 µM): 92.7% and 105% and 96.4%; viability, T/C (compound 0.01 µM): 88.6% and 93.8% and 85.1%; viability, T/C (compound 0.0316 µM): 73% and 63.1% and 67.9%; viability, T/C (compound 0.1 µM): 51.1% and 55.8% and 48.8%; IC50 (curve of compound): > 100 nM and 93.3 nM

For `Nc1ccn(C2OC(CO)C(O)C2(F)F)c(=O)n1` (configuration not stated) + Nc1ccc(C#CCN(C(=O)Cc2ncc(C(F)(F)F)cc2C(F)(F)F)c2ccc(F)cc2)nn1, which IC50 (curve of first compound, second compound 0.0316 µM) is on record?
The IC50 was less than 31.6 nM.

And the IC50 (curve of first compound, second compound 0.1 µM)?
Its IC50 is less than 31.6 nM.

And the IC50 (curve of first compound, second compound 0.316 µM)?
Its IC50 is less than 31.6 nM.

And the IC50 (curve of first compound, second compound 1 µM)?
Its IC50 is less than 31.6 nM.

What about the IC50 (curve of first compound, second compound 3.16 µM) of the same molecule?
The IC50 was less than 31.6 nM.

What about the IC50 (curve of first compound, second compound 10 µM) of the same molecule?
Its IC50 is less than 31.6 nM.

What about the viability, T/C (second compound 0.0316 µM, first compound 0.0316 µM) of the same molecule?
The viability, T/C was 36.5%.

And the viability, T/C (second compound 0.0316 µM, first compound 0.1 µM)?
The viability, T/C was 35.5%.

And the viability, T/C (second compound 0.0316 µM, first compound 0.316 µM)?
The viability, T/C was 38.9%.

And the viability, T/C (second compound 0.0316 µM, first compound 1 µM)?
Its viability, T/C is 38%.

And the viability, T/C (second compound 0.0316 µM, first compound 3.16 µM)?
The viability, T/C was 37.6%.

And the viability, T/C (second compound 0.0316 µM, first compound 10 µM)?
The viability, T/C was 35%.

And the viability, T/C (second compound 0.1 µM, first compound 0.0316 µM)?
The viability, T/C was 43%.

What about the viability, T/C (second compound 0.1 µM, first compound 0.1 µM) of the same molecule?
The viability, T/C was 41.8%.

What about the viability, T/C (second compound 0.1 µM, first compound 0.316 µM) of the same molecule?
The viability, T/C was 38.7%.

What about the viability, T/C (second compound 0.1 µM, first compound 1 µM) of the same molecule?
Its viability, T/C is 39.8%.

What about the viability, T/C (second compound 0.1 µM, first compound 3.16 µM) of the same molecule?
Its viability, T/C is 38.5%.

What about the viability, T/C (second compound 0.1 µM, first compound 10 µM) of the same molecule?
The viability, T/C was 41.8%.

And the viability, T/C (second compound 0.316 µM, first compound 0.0316 µM)?
The viability, T/C was 48.2%.

What about the viability, T/C (second compound 0.316 µM, first compound 0.1 µM) of the same molecule?
The viability, T/C was 38.5%.

And the viability, T/C (second compound 0.316 µM, first compound 0.316 µM)?
Its viability, T/C is 36%.

What about the viability, T/C (second compound 0.316 µM, first compound 1 µM) of the same molecule?
The viability, T/C was 38%.

What about the viability, T/C (second compound 0.316 µM, first compound 3.16 µM) of the same molecule?
The viability, T/C was 38.9%.

And the viability, T/C (second compound 0.316 µM, first compound 10 µM)?
Its viability, T/C is 37.3%.

And the viability, T/C (second compound 1 µM, first compound 0.0316 µM)?
The viability, T/C was 36.3%.

And the viability, T/C (second compound 1 µM, first compound 0.1 µM)?
The viability, T/C was 35.3%.

What about the viability, T/C (second compound 1 µM, first compound 0.316 µM) of the same molecule?
The viability, T/C was 46.5%.

What about the viability, T/C (second compound 1 µM, first compound 1 µM) of the same molecule?
The viability, T/C was 35%.

What about the viability, T/C (second compound 1 µM, first compound 3.16 µM) of the same molecule?
The viability, T/C was 38.2%.

And the viability, T/C (second compound 1 µM, first compound 10 µM)?
The viability, T/C was 29.6%.

What about the viability, T/C (second compound 3.16 µM, first compound 0.0316 µM) of the same molecule?
The viability, T/C was 36.4%.

And the viability, T/C (second compound 3.16 µM, first compound 0.1 µM)?
The viability, T/C was 35.2%.

What about the viability, T/C (second compound 3.16 µM, first compound 0.316 µM) of the same molecule?
Its viability, T/C is 39.9%.

And the viability, T/C (second compound 3.16 µM, first compound 1 µM)?
Its viability, T/C is 36.2%.

And the viability, T/C (second compound 3.16 µM, first compound 3.16 µM)?
The viability, T/C was 37.5%.

And the viability, T/C (second compound 3.16 µM, first compound 10 µM)?
Its viability, T/C is 36.5%.

What about the viability, T/C (second compound 10 µM, first compound 0.0316 µM) of the same molecule?
Its viability, T/C is 39.5%.

What about the viability, T/C (second compound 10 µM, first compound 0.1 µM) of the same molecule?
Its viability, T/C is 38.1%.

What about the viability, T/C (second compound 10 µM, first compound 0.316 µM) of the same molecule?
The viability, T/C was 32.8%.

What about the viability, T/C (second compound 10 µM, first compound 1 µM) of the same molecule?
Its viability, T/C is 39.9%.

What about the viability, T/C (second compound 10 µM, first compound 3.16 µM) of the same molecule?
Its viability, T/C is 31.2%.

And the viability, T/C (second compound 10 µM, first compound 10 µM)?
The viability, T/C was 42.6%.

What does the source list for `Cn1ncnc1[C@H]1c2n[nH]c(=O)c3cc(F)cc(c23)N[C@@H]1c1ccc(F)cc1`?
viability, T/C (compound 0.000316 µM): 85.9% and 104% and 97.7%; viability, T/C (compound 0.001 µM): 103% and 90.3% and 99.6%; viability, T/C (compound 0.00316 µM): 103% and 95% and 84.3%; viability, T/C (compound 0.01 µM): 86.2% and 97.3% and 92.6%; viability, T/C (compound 0.0316 µM): 86.9% and 122% and 88.4%; viability, T/C (compound 0.1 µM): 84.2% and 90.4% and 88%; IC50 (curve of compound): > 100 nM
